Measured values reported in US20030166202A1, “P450 Monooxygenases of the cyp79 family” (priority 2000, published 2003).

T1: CYP79A2 (Arabidopsis thaliana, UniProt Q9FLC8)
T1 sequence (Q9FLC8 7-529 limits assumed): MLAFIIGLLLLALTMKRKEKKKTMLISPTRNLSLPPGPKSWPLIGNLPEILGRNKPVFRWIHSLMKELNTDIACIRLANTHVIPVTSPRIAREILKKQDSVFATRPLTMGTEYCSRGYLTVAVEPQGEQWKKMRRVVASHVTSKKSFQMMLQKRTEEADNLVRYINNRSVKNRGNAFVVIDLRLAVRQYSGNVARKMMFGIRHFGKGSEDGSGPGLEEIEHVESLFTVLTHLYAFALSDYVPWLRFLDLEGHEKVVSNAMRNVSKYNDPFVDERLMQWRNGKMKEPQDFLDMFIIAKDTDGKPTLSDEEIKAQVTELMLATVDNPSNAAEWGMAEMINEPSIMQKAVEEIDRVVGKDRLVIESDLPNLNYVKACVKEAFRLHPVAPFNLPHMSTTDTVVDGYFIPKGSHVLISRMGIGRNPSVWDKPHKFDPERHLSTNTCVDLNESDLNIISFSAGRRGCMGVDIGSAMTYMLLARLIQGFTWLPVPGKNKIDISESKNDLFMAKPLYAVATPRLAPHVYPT

T2: CYP79B2 (Arabidopsis thaliana, UniProt O81346)
T2 sequence (O81346 1-541): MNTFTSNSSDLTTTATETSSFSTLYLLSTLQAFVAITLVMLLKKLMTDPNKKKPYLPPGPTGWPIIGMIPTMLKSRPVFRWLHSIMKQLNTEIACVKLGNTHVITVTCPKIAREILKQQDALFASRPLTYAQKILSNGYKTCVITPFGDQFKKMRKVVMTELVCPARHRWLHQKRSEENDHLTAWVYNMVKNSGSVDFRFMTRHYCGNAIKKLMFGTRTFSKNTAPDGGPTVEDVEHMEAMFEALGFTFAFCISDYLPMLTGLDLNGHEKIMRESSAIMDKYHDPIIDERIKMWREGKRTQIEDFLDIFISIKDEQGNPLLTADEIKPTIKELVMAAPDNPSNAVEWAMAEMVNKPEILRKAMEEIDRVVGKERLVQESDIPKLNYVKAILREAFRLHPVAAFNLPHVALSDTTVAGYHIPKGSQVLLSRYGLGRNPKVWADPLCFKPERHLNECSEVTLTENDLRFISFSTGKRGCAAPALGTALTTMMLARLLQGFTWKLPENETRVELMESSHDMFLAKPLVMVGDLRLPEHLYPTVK

B1: CYP79B2 (Arabidopsis thaliana) (protein)
chain: T2 sequence (O81346 1-541)

What was measured:
CYP79A2 = target: T1, CYP79A2; experiment: CYP79A2 activity in E. coli spheroplasts reconstituted with NADPH:cytochrome P450 oxidoreductase
CYP79F1 = CYP79F1 (Arabidopsis thaliana, UniProt Q949U1, M2A); settings: E. coli C43(DE3) spheroplasts, GC-MS or TLC
Chain of CYP79F1 (Q949U1 whole entry M2A): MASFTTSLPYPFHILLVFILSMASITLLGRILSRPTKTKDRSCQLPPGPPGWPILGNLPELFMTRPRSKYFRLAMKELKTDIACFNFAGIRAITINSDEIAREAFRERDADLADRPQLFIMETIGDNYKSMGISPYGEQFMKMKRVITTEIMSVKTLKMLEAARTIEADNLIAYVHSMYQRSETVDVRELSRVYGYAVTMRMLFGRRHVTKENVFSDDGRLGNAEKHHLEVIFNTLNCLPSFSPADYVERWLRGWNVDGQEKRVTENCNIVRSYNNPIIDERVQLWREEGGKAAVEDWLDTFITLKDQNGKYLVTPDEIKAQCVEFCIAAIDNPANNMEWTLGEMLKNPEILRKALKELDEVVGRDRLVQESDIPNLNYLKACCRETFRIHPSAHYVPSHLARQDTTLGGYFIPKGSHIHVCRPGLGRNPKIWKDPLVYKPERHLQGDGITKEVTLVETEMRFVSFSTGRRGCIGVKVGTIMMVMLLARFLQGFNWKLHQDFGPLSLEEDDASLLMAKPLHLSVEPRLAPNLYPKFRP
Method: In a typical enzyme assay, 5 μl spheroplasts and 4 μl NADPH:cytochrome P450 reductase (equivalent to 0.04 units defined as 1 μmol cytochrome c/min) are incubated with substrate in buffer containing 30 mM KPi, pH 7.5, 3 mM NADPH, 3 mM reduced glutathione, 0.042% Tween 80, 1 mg ml^−1 L-α-dilauroylphosphatidylcholine in a total volume of 30 μl. Reaction mixtures containing spheroplasts of E. coli C43(DE3) transformed with empty vector are used as controls in all assays. 3.3 μM L-[U-^14C]phenylalanine (453 mCi/mmol; Pharmacia), 3.7 μM L-[U-^14C]tyrosine (449 mCi/mmol; Pharmacia), 0.1 mM L-[methyl-^14C]methionine (56 mCi/mmol; Pharmacia), and 24 μM L-[side chain-3-^14C]tryptophan (56.5 mCi/mmol; NEN) are tested as potential substrates. After incubation at 28° C. for 1 hour, half of the reaction mixture is analyzed by TLC on Silica Gel 60 F254 sheets (Merck) using toluene/ethyl acetate 5:1 (v/v) as eluent. Radiolabelled bands are visualized and quantified using a STORM 840 phosphoimager (Pharmacia). For GC-MS analysis, 450 μl reaction mixture containing 3.3 mM L-methionine (Sigma), 3.3 mM DL-dihomomethionine or 3.3 mM DL-trihomomethionine, respectively, are incubated for 4 hours at 25° C. and extracted with a total volume of 600 μl CHCl3. The organic phase is collected, evaporated, and the residue is dissolved in 15 μl CHCl3 and analyzed by GC-MS. […] An SGE column (BPX5, 25 m×0.25 mm, 0.25 μm film thickness) is used (heat pressure 100 kPa, splitless injection). The oven temperature program is as follows: 80° C. for 3 minutes, 80° C. to 180° C. at 5° C. min^−1, 180° C. to 300° C. at 20° C. min^−1, and 300° C. for 10 min. The ion source is run in EI mode (70 eV) at 200° C. […] DL-dihomomethionine, DL-trihomomethionine, 5-methylthiopentanaldoxime and 6-methylthiohexanaldoxime are synthesized as described (Dawson et al, J. Biol. Chem. 268: 27154-27159, 1993) and authenticated by NMR spectroscopy.

[1] = Non-enzymatic conversion of tryptophan under oxidative conditions; settings: 100 mM H2O2, 1 mM MnCl2, 800 μM 2,4-dichlorophenol in 50 mM Tricine buffer, pH 8.0, no enzyme
CYP79B2 = target: T2, CYP79B2; experiment: CYP79B2 activity in E. coli spheroplasts reconstituted with NADPH:cytochrome P450 reductase
Method: The activity of CYP79B2 is measured by reconstituting spheroplasts from E. coli expressing CYP79B2 with purified NADPH:cytochrome P450 reductase from Sorghum bicolor (L.) Moench. […] The reaction is incubated at 34° C. for 30 minutes, extracted two times with ethyl acetate and the ethyl acetate phase is analyzed by TLC using toluen:ethyl acetate 5:1 as eluent. Radiolabelled bands are visualized on a Storm 840 phosphorimager (Molecular Dynamics) and quantified with ImageQuant analysis software (Molecular Dynamics). Substrate specificity is investigated by substituting the ^14C-labelled tryptophan with ^14C-labelled tyrosine or phenylalanine. GC-MS is employed to verify the structure of the compound produced from tryptophan by recombinant CYP79B2. A 450 μl reaction mixture as described above containing 2 mM unlabelled tryptophan is incubated at 34° C. for 2 hours. The reaction mixture is extracted twice with 300 μl CHCl3 and lyophilized until dryness. GC-MS is performed with an HP5890 Series II gas chromatograph coupled to a Jeol JMS-AX505W mass spectrometer. Splitless injection on an SGE column (BPX5, 25 mm×0.25 mm, 0.25 μm film thickness) and a head pressure of 100 kPa are used.
Single colonies are grown overnight at 37° C. in LB medium containing 100 μg/ml ampicillin. 1 ml of the overnight culture is used to inoculate 75 ml TB medium containing 100 μg/ml ampicillin, 75 μg/ml δ-aminolevulinic acid, 1 mM thiamine and 1 mM IPTG. The TB cultures are grown for 44 hours at 125 rpm and 28° C.

[2] = substrate: N[C@@H](Cc1c[nH]c2ccccc12)C(=O)O; experiment: purified protein, by the assay type; settings: other: native CYP79B2 construct; pH 7.9

Molecule | production of the respective aldoxime by CYP79A2 (CYP79A2) | formation of the corresponding aldoxime by CYP79F1 (CYP79F1) | conversion rate to compound co-migrating with IAOX relative to CYP79B2 [1] | Vmax (CYP79B2; native CYP79B2 construct) [pmol/h/μl spheroplast] | oxime production by CYP79B2 (CYP79B2; radiolabelled amino acid, TLC) | Km [2] [µM]
N[C@@H](Cc1c[nH]c2ccccc12)C(=O)O [L-tryptophan] | does not result in production of detectable amounts of the respective aldoximes | did not result in the formation of detectable amounts of the corresponding aldoximes | approximately 0.7% | 97.2 | production of a strong band that co-migrates with authentic IAOX standard | –
B1 | – | – | – | – | – | 21
